Data published in patent US11291675B2, “6′-sialyllactose for use in the treatment of hearing loss” (Rheinische Friedrich-Wilhelms-Universität Bonn, priority 2017, dated 2022).
“Also recorded” adds a separate entry of the source.

Experiments:
[1] = tested on: hair cells of the middle turn of the cochlea; test: Hair cell count (Myo7A+ cells) in the cochlea, animal model of antibiotic-induced hearing loss; assay type: in vivo, mouse; settings: seven consecutive days
Experimental: One-week old BL6 pubs of mice were treated subcutaneously with either 50 μl PBS, 50 μl of 200 mg/kgbw neomycin (Sigma, N5285) in PBS, or 50 μl of 200 mg/kgbw neomycin (Sigma, N5285) plus 100 mg/kgbw 6′-sialyllactose (Carbosynth, OS04398) in PBS for seven consecutive days. Mice were sacrificed two weeks after the last injection. For further investigations cochlea of the mice were isolated, post-fixed in 4% PFA, decalcified in 5% EDTA, incubated in 30% sucrose until fully soaked, embedded in a cryoprotectant and cut into 20 μm thin slices from the apex to base of the cochlea with a cryostat. For quantification of the hair cell density in the cochlea, cryosections from different levels of the cochlea were chosen and co-stained with antibodies against the hair cell marker Myosin7A (Myo7A) and the cellular nuclei marker DAPI. Images were taken with a confocal microscope and divided into different sections from apex to base of the cochlea. Myosin7a-positive cells were counted in each section.

[2] = tested on: sensory neurons in the spiral ganglion; test: Sensory neuron density (NeuN+ cells) in the spiral ganglion, animal model of antibiotic-induced hearing loss; assay type: in vivo, mouse; settings: seven consecutive days
Experimental: One-week old C57BL/6 pubs of mice were treated subcutaneously with either 50 μl PBS, 50 μl of 200 mg/kgbw neomycin (Sigma, N5285) in PBS, or 50 μl of 200 mg/kgbw neomycin (Sigma, N5285) plus 100 mg/kgbw 6′-sialyllactose (Carbosynth, OS04398) in PBS for seven consecutive days. Mice were sacrificed 2 weeks after the last injection. For further investigations cochlea of the mice were isolated, post-fixed in 4% PFA, decalcified in 5% EDTA, incubated in 30% sucrose until fully soaked, embedded in a cryoprotectant and cut into 20 μm thin slices from the apex to base of the cochlea with a cryostat. For quantification of the sensory neurons in the cochlea, cryosections from different levels of the cochlea were chosen and stained with antibodies for neuronal nuclei (NeuN) and the cellular nuclei marker DAPI. Z-stacks of 3×2 μm images were taken with a confocal microscope and stacks were afterwards combined to maximal projection images. The area of the spiral ganglion was selected and measured using ImageJ.
The NeuN-positive cells of the mice treated with neomycin (Neo), neomycin plus 6′-sialyllactose (Neo+6SL) or vehicle control (PBS) within the chosen area were counted and the neuronal density of the spiral ganglion was calculated and normalized to the PBS treated condition. […] Data were analyzed by one-way ANOVA with Bonferroni post-hoc correction (*p<0.05).

[3] = tested on: CD68+ mononuclear phagocytes in the spiral ganglion; test: Macrophage activation (CD68+ cells) in the spiral ganglion, animal model of antibiotic-induced hearing loss; assay type: in vivo, mouse; settings: seven consecutive days
Experimental: To determine the effect of 6′-sialyllactose on macrophage activation in the inner ear, one-week old C57BL/6 pubs of mice were treated subcutaneously with either 50 μl PBS, 50 μl of 200 mg/kgbw neomycin (Neo, Sigma, N5285) in PBS, or 50 μl of 200 mg/kgbw neomycin (Sigma, N5285) plus 100 mg/kgbw 6′-sialyllactose (Carbosynth, OS04398) in PBS or only PBS as vehicle control for seven consecutive days. Mice were sacrificed two weeks after the last injection.
For further investigations, cochleae of the mice were isolated, post-fixed in 4% paraformaldehyde (PFA), decalcified in 5% EDTA, incubated in 30% sucrose until fully soaked, embedded in a cryoprotectant and cut into 20 μm thin slices from the apex to the base of the cochlea with a cryostat. For quantification of the macrophage activation in the cochlea, cryosections from different levels of the cochlea were chosen and co-stained with antibodies against the macrophage activation marker CD68 and the cellular nuclei marker DAPI. […] The area of the spiral ganglion was selected and measured using ImageJ. The CD68-positive cells were counted within the chosen area and the cell density of the macrophage in the spiral ganglion was calculated and normalized to the PBS vehicle treated condition. Data were analyzed by one-way ANOVA with Bonferroni post-hoc correction.

human THP-1 macrophages = test: Beads phagocytosis in LPS-activated THP-1 macrophages (flow cytometry); assay type: cell-based; settings: THP-1 macrophages activated by 3 μg/ml LPS, 24 hours; 0.5 μM test substance; vs LPS alone
Experimental: The effect of 6′- and 3′-sialyllactose on beads phagocytosis was determined in the human mononuclear phagocyte cell line THP-1. The human mononuclear phagocyte cell line THP-1 was maintained in RPMI medium supplemented with 1% L-glutamine, 1% Penicillin/Streptomycin and 1% heat-inactivated chicken serum, at 5% CO2 and 37° C. For passaging, the cells were transferred to a 50 mL Falcon tube and centrifuged at 1300 rpm for 3 min. The supernatant was removed and the pellet was re-suspended in 5 mL of warm medium. For differentiation into macrophage-like cells, the cell density was adjusted to approximately 1×10^6 cells/mL. The cell suspension was mixed with 10 ng/mL PMA (Phorbol 12-myristate 13-acetate, Sigma) and distributed in volumes according to each experiment. Cells were incubated for 48 h, washed twice with medium and then cultured in medium for additional 48 h without PMA. For experimentation THP-1 macrophages were cultured in RPMI medium supplemented with 1% L-glutamine, 1% Penicillin/Streptomycin and 1% heat-inactivated chicken serum, at 5% CO2 and 37° C. […]
Beads phagocytosis was analyzed by flow cytometry (BD FACSCalibur) by quantification of the percentage of cells having ingested 2 or more beads.

[4] = tested on: human iPS cell-derived sensory neurons co-cultured with human THP1-macrophages; test: Neural branches length in co-culture of iPS cell-derived sensory neurons and THP1 macrophages; assay type: cell-based; settings: neurons plus THP1 macrophages, 100 μM 6′-sialyllactose, 48 hours; vs co-culture without 6′-sialyllactose
Experimental: The effect of 6′-sialyllactose on sensory neural branches was determined in a human co-culture system with induced pluripotent stem cell derived sensory neurons and human THP1-macrophages.
Human sensory neurons were obtained from human induced pluripotent stem (iPS) cells. At day 0, the iPS colonies were detached by collagenase IV, collected by sedimentation, and resuspended in DMEM/F12 medium supplemented by 20% KO serum, 1% nonessential amino acids, 10 μM SB (SB-431542, inhibitor of TGF-beta), 1 μM dorsomorphin, 3 μM CHIR, and 0.5 μM purmorphamine for 2 days. […] Afterwards, the neural stem cells (NSCs) were ready for differentiation. […]
The human THP1 mononuclear phagocyte cell line was maintained in RPMI medium supplemented with 1% L-glutamine, 1% Penicillin/Streptomycin, 1% sodium-pyruvate, 1% heat-inactivated chicken serum, and 1% N2 supplement at 5% CO2 and 37° C. […] For experiments, THP-1 macrophages were scraped, counted and added to the sensory iPS cell-derived neurons in co-culture medium 1:1 ratio (N2B27 medium plus BDNF, GDNF, dbcAMP) and treated with 100 μM 6′-sialyllactose (Carbosynth), that was re-purified by a HPLC-based anion exchange chromatography before use, or vehicle control for another 48 hours. […]

[5] = mice, 200 mg/kgbw neomycin alone s.c., vs PBS

Compound	Myo7A-positive hair cells of the middle turn of the cochlea per slice ([1]; one-week old BL6 mice, 200 mg/kgbw neomycin plus 100 mg/kgbw 6′-sialyllactose s.c., vs neomycin alone)	NeuN-positive cells (neuronal density) in the spiral ganglion, normalized to PBS ([2]; one-week old C57BL/6 mice, 200 mg/kgbw neomycin plus 100 mg/kgbw 6′-sialyllactose s.c., vs neomycin alone)	CD68+ macrophages per area in the spiral ganglion (macrophage activation), normalized to PBS ([3]; one-week old C57BL/6 mice, 200 mg/kgbw neomycin plus 100 mg/kgbw 6′-sialyllactose s.c., sacrificed two weeks after last injection, vs neomycin alone)	relative beads phagocytosis rate (cells having ingested 2 or more beads) (human THP-1 macrophages)	relative neural branches length [4]	Myo7A-positive hair cells of the middle turn of the cochlear organ of Corti [1, 5]	NeuN-positive cells in the spiral ganglion [2, 5]	CD68+ cells per area in the spiral ganglion [3, 5]
Neu5Ac-α(2→6)-Gal-β(1→4)-Glc [6′-sialyllactose]	partially rescued; also recorded: reduced the neomycin-induced loss of the hair cells	less present; also recorded: might reduce the neomycin-induced loss of the sensory neurons	slight attenuation of macrophage activation; also recorded: might partially be prevented	reduced the phagocytic uptake of microsphere beads; also recorded: reduced phagocytosis of beads	could prevent the reduction in neural branches length	–	–	–
NC[C@@H]1O[C@H](O[C@H]2[C@@H](O)[C@H](O[C@@H]3[C@@H](O)[C@H](N)C[C@H](N)[C@H]3O[C@H]3O[C@H](CN)[C@@H](O)[C@H](O)[C@H]3N)O[C@@H]2CO)[C@H](N)[C@@H](O)[C@@H]1O [neomycin, reference compound]	–	–	–	–	–	strong reduction	reduction	strongly increases the number of mononuclear phagocytes
CC(=O)NC1C(O)CC(OC2C(O)C(CO)OC(OC3C(CO)OC(O)C(O)C3O)C2O)(C(=O)O)OC1[C@H](O)[C@H](O)CO (stereo partly drawn) [3′-sialyllactose, reference compound]	–	–	–	had no effect on the LPS-induced uptake of beads; also recorded: only showed a tendency without significance	–	–	–	–
